Source: patent US20180008592A1, “TREATMENT OF UREMIC PRURITUS” (TREVI THERAPEUTICS, INC., priority 2016, published 2018)

Columns and labels:
[1] = system: renally impaired patients on hemodialysis with moderate or severe uremic pruritus; assay: Randomized double-blind placebo-controlled trial: Worst Itching Intensity Numerical Rating Scale (NRS); format: in vivo, human; details: for Change from Baseline to the Evaluation Period NRS (mean SD): weeks 7 and 8, scale 0-10; for patients with ≧15% change from baseline to the Evaluation Period in the NRS: p=NS; for NRS, Change from Baseline to the Evaluation Period, mean (SD): severe pruritus subgroup (Baseline NRS ≧ 7), post-hoc
Description: This clinical study was a parallel, double-blind, placebo-controlled trial in which renally impaired patients on hemodialysis with moderate or severe uremic pruritus were randomized in a 1:1:1 ratio to nalbuphine ER tablets to a target dose of 120 mg BID or 60 mg BID, or matching placebo tablets BID. Medications taken for treatment of pruritus (“antipruritic medications”) were not prohibited, but their use was recorded throughout the study. Use of skin emollients was also not restricted. A placebo comparator was chosen because there are no approved treatments for uremic pruritus in the United States or Europe or an established standard of care that could serve as an active control.
The primary objectives were to evaluate the effects on itching intensity using a Worst Itching Intensity Numerical Rating Scale (NRS, 0 [no itching]-10 [worst possible itching]) (FIG. 7) as well as safety and tolerability. The study was conducted at 46 United States investigative sites and 6 investigative sites in Romania and Poland. The Sponsor oversaw the conduct of the trial and an independent unblinded Data Safety Monitoring Board reviewed safety data approximately once a month during the conduct of the trial.
To be eligible, patients had to have been on hemodialysis for 3 months, have a Patient Assessed Disease Severity (PADS) category of “B” or “C”, and a mean of 6 Worst Itching Numerical Rating Scale Scores during the week prior to randomization ≧4.5 on an 11-point scale (0, “no itching” to 10, “worst possible itching”) with at least 2 scores ≧5.0.
(§1) The primary endpoint was the change from Baseline to the Evaluation Period (Study weeks 7 and 8) in the modified intent-to-treat population. Quality of life-related secondary endpoints included change from Day 1 to the Evaluation Period in itching-related quality of life (using the Skindex-10 (FIG. 8)) and itching-related sleep disruption (using the Itch Medical Outcomes Study [Itch MOS] (FIG. 9), SLP-9). The Hospital Anxiety and Depression Score (HADS) used as a general measure of anxiety and depression. All patient-reported outcomes measures were selected based on their prior validation in uremic pruritus patients specifically or in the dialysis population more generally.
Patients were analyzed by group to which they were randomized.
(§2) The primary and quality of life secondary endpoint analyses used a mixed model repeated measures ANCOVA with the main effects of treatment and site and baseline worst itch NRS score as the covariate. The model included time (i.e. Visit) as a factor variable and treatment*time (with placebo as the reference category) with an unstructured covariance structure for repeated measures. Data from all post-baseline visits were used to fit the model. For the primary endpoint, the baseline value was defined as the mean of worst itch daytime and nighttime NRS scores used for satisfying the protocol inclusion criterion #5 (mean worst itching NRS≧4.5 based on a total of 3 daytime and 3 nighttime measurements from 3 dialysis visits). For the secondary endpoints, the baseline value was based on a measurement taken on Study Day 1, prior to randomization. A pre-specified step-down procedure was used. The first comparison was of nalbuphine 120 mg BID dose vs. placebo. If the first comparison was significant at the p<0.05 level, then the comparison between the nalbuphine 60 mg BID dose vs. placebo would be conducted. Patients with a 15% or greater response in worst itch NRS were analyzed using a Cochran-Mantel-Haenszel (CMH) test. Analysis of the Itch MOS utilized the SLP-9 scoring algorithm.
In the first 2 weeks of treatment, patients were blindly force-titrated to their assigned target dose, with the patients in the active arms reaching a dose of 60 mg BID (NAL 60) after the first week and, for those in the high dose group, to 120 mg BID (NAL 120) after the second week. Study drug was administered in blister cards containing the labeled morning and evening doses for each day of the week. […]

[2] = system: renally impaired patients on hemodialysis with moderate or severe uremic pruritus; assay: Same trial: Hospital Anxiety and Depression Scale (HADS); format: in vivo, human
Text: as §1, §2
In the first 2 weeks of treatment, patients were blindly force-titrated to their assigned target dose, with the patients in the active arms reaching a dose of 60 mg BID (NAL 60) after the first week and, for those in the high dose group, to 120 mg BID (NAL 120) after the second week. Study drug was administered in blister cards containing the labeled morning and evening doses for each day of the week. Subsequently, patients continued stable doses of the study drug for an additional 6 weeks and were then washed off study drug and followed for another 2 weeks for itching intensity and safety. […]

## Cl.Oc1ccc2c3c1O[C@H]1[C@@H](O)CC[C@@]4(O)[C@@H](C2)N(CC2CCC2)CC[C@]314 [Nalbuphine, 17-(cyclobutylmethyl)-4,5α-epoxymorphinian-3,6α, 14-triol, hydrochloride]
[1]; 60 mg BID
  difference vs. placebo in worst itching NRS (primary endpoint): no significant difference
  patients with ≧15% change from baseline to the Evaluation Period in the NRS: 80.5%
[1]; 60 mg BID ER tablets, N = 128, baseline NRS 6.9 (1.4)
  Change from Baseline to the Evaluation Period NRS (mean SD): −3.1 (2.4)
[1]; 60 mg BID, 95% CI (−0.84, 0.37), p = 0.441
  Difference in the Change from Baseline to the Evaluation Period (LSMEAN, SE) vs. placebo: −0.24 (0.31)
[1]; 120 mg BID ER tablets, N = 120, baseline NRS 6.9 (1.5), hydrochloride
  Change from Baseline to the Evaluation Period NRS (mean SD): −3.5 (2.4)
[1]; 120 mg BID, 8-week treatment period
  development of tolerance to the effect on itch: no apparent development of tolerance
[1]; 120 mg BID, 95% CI (−1.34, −0.13), p = 0.017
  Difference in the Change from Baseline to the Evaluation Period (LSMEAN, SE) vs. placebo: −0.73 (0.31)
[1]; 120 mg BID, moderate and severe uremic pruritus
  reduction in itching intensity: 49%
[1]; 120 mg BID
  patients with ≧15% change from baseline to the Evaluation Period in the NRS: 84.5%
[1]; 60 mg BID, N = 61, baseline 8.0 (0.9)
  NRS, Change from Baseline to the Evaluation Period, mean (SD): −3.4 (2.6)
[1]; 120 mg BID, N = 63, baseline 8.2 (0.8), p < 0.01
  NRS, Change from Baseline to the Evaluation Period, mean (SD): −4.5
[1]; severe subgroup (Baseline NRS ≧7.0), 60 mg BID
  improvement of itching intensity and Itch MOS compared with placebo: Neither itching intensity nor Itch MOS improved significantly
[1]; severe subgroup (Baseline NRS ≧7.0), 120 mg BID
  decrease of mean itching intensity: 55%
[1]; severe subgroup (Baseline NRS ≧7.0, n=179), 120 mg BID, baseline 8.2 (0.8), p=0.007 vs. placebo
  absolute reduction of mean itching intensity (NRS): 4.5 (2.5)
[2]; 60 mg BID, N = 128
  HADS Anxiety Subscale (0-21), change from Baseline to the Evaluation Period, mean (SD): −1.72 (3.0)
  HADS Depression Subscale (0-21), change from Baseline to the Evaluation Period, mean (SD): −0.68 (3.1)
[2]; 120 mg BID, N = 120
  HADS Anxiety Subscale (0-21), change from Baseline to the Evaluation Period, mean: −1.64
  HADS Depression Subscale (0-21), change from Baseline to the Evaluation Period, mean: −1.03
